# According to US20240228475A1, “PROCESSES FOR THE PREPARATION OF (S)-2-(2,6-DIOXOPIPERIDIN-3-YL)-4-((2-FLUORO-4-((3-MORPHOLINOAZETIDIN-1-YL)METHYL)BENZYL)AMINO)ISOINDOLINE-1,3-DIONE” (Celgene Corporation, priority 2021, published 2024):
# Assays:
# [1] = Chiral stability (racemization) of Compound 1 free base in aqueous at various pH; type: physicochemical; conditions: for Chiral Purity: aqueous
# From the text: (§1) The rate is time and temperature sensitive (Table 1). The isolation of the crystalline bis-besylate salt of Compound 1 avoids the need for a pH swing. Also, the crystalline freebase has poor morphology which makes filtration slow, increasing the risk for racemization.
# [2] = Solubility of Compound 1 free base in aqueous at various pH; type: physicochemical; conditions: aqueous solution, aqueous buffer
# From the text: as §1
SMILES,"Chiral stability compared to the crystalline freebase ([1]; isolated solid, compared to crystalline freebase)","solubility at 3 h ([2]; pH 5.3, time 3 h) [µg/mL]","solubility at 4 h ([2]; pH 6.7, time 4 h) [µg/mL]","solubility at 4 h ([2]; pH 7.6, time 4 h) [µg/mL]","Chiral stability towards aqueous base ([1]; aqueous base, rate is time and temperature sensitive)","Chiral Purity ([1]; pH 5.3, time 3 h) [%]","Chiral Purity ([1]; pH 6.7, time 4 h) [%]","Chiral Purity ([1]; pH 7.6, time 4 h) [%]"
"O=C1CC[C@H](N2C(=O)c3cccc(NCc4ccc(CN5CC(N6CCOCC6)C5)cc4F)c3C2=O)C(=O)N1.O=S(=O)(O)c1ccccc1.O=S(=O)(O)c1ccccc1 [Compound 1 bis-besylate salt, (S)-2-(2,6-dioxopiperidin-3-yl)-4-((2-fluoro-4-((3-morpholinoazetidin-1-yl)methyl)benzyl)amino)isoindoline-1,3-dione bis-besylate salt]",more stable,,,,,,,
"O=C1CC[C@H](N2C(=O)c3cccc(NCc4ccc(CN5CC(N6CCOCC6)C5)cc4F)c3C2=O)C(=O)N1 [Compound 1 Free Base, (S)-2-(2,6-dioxopiperidin-3-yl)-4-((2-fluoro-4-((3-morpholinoazetidin-1-yl)methyl)benzyl)amino)isoindoline-1,3-dione]",,4500,2400,400,racemization was observed,94.1,89.1,83.2
